Assays:
blood plasma of rats = assay: Concentration of dopamine, its metabolites, 5-HT and 5-HIAA in the blood plasma of benserazide-pretreated rats; format: in vivo, rat; details: for 3-MT concentration in blood plasma (MV) / 5-HIAA concentration in blood plasma (MV) / 5-HT concentration in blood plasma (MV) / Dopac concentration in blood plasma (MV) / Dopamine concentration in blood plasma (MV) / HVA concentration in blood plasma (MV): 30 min after benserazide, blood 90 min later; for Formation of dopamine in the blood plasma (in words): low and higher doses
Protocol: (§1) The rats were pretreated with benserazide, an inhibitor of the aromatic amino acid decarboxylase, in order to reduce the degradation of the test compounds in the blood and to thus provide sufficient concentration of dopamine and α-lipoic acid in the brain. After 30 minutes, L-DOPA (standard therapy for Parkinson's disease) or compound 1, compound 2, compound 3 in doses equivalent to L-DOPA were injected into the peritoneum (intraperitoneal, ip). After a further 90 minutes, blood and brain tissue (striatum) were extracted. A lower dose (25 mg/kg body weight) and a higher dose (50 mg/kg body weight) of L-DOPA were selected.

[1] = test system: nucleus accumbens of a freely moving rat; assay: In vivo microdialysis of dopamine release in the nucleus accumbens of the freely moving rat; details: for Dose dependence of dopamine release in nucleus accumbens (in words): 25 and 50 mg/kg L-DOPA or equimolar doses, FIGS. 1-4; for Time-course of dopamine concentration in nucleus accumbens microdialysate (in words): ip, 30 min after benserazide, L-DOPA: higher dose (FIG. 1), compound 1: FIGS. 3 and 4
Protocol: The arrow indicates the moment of injection (ip: intraperitoneal) of L-DOPA (25 mg/kg body weight) 30 minutes after the administration of benserazide (10 mg/kg body weight, ip).
The arrow indicates the moment of injection (ip: intraperitoneal) of L-DOPA (50 mg/kg body weight) 30 minutes after the administration of benserazide (10 mg/kg body weight, ip, in 0.9% NaCl).
The arrow indicates the moment of injection (ip: intraperitoneal) of diacetyl-DOPA-ethylene glycol α-lipoic acid (equimolar dose to 25 mg/kg body weight L-DOPA) 30 minutes after the administration of benserazide (10 mg/kg body weight, ip in 0.9% NaCl).
The arrow indicates the moment of injection (ip: intraperitoneal) of diacetyl-DOPA-ethylene glycol α-lipoic acid (equimolar dose to 50 mg/kg body weight L-DOPA) 30 minutes after the administration of benserazide (10 mg/kg body weight, ip).
Furthermore, by the method of in vivo micro dialysis of the conscious and freely moving rat, experiments were carried out to test whether the production and release of dopamine in the nucleus accumbens, a part of the brain with dense innervation of dopamine-containing nerve cells, is increased upon administration of L-DOPA or compound 1. The advantage of said method consists in the fact that the time-course of the release of the messenger dopamine from the active nerve cells can be observed in the conscious and freely moving rat. […] Said strong increase and the high concentrations are not desired since several degradation products of dopamine and the oxygen radicals formed during the degradation of dopamine have damaging effects on nerve cells.

[2] = test system: brain (striatum) of the rat; assay: Concentration of dopamine, its metabolites, 5-HT and 5-HIAA in the striatum of benserazide-pretreated rats; format: in vivo; details: for 3-MT concentration in striatum (MV) / 5-HIAA concentration in striatum (MV) / 5-HT concentration in striatum (MV) / Dopac concentration in striatum (MV) / Dopamine concentration in striatum (MV) / HVA concentration in striatum (MV): 30 min after benserazide, tissue 90 min later
Protocol: as §1

[3] = 25 mg/kg L-DOPA or L-DOPA eq. ip
[4] = 50 mg/kg L-DOPA or L-DOPA eq. ip
[5] = higher doses (50 mg/kg L-DOPA eq.)
[6] = low doses (25 mg/kg L-DOPA eq.)

| Compound | 3-MT concentration in blood plasma (MV) (blood plasma of rats; [3]) | 5-HIAA concentration in blood plasma (MV) (blood plasma of rats; [3]) | 5-HT concentration in blood plasma (MV) (blood plasma of rats; [3]) | Dopac concentration in blood plasma (MV) (blood plasma of rats; [3]) | Dopamine concentration in blood plasma (MV) (blood plasma of rats; [3]) | 3-MT concentration in striatum (MV) [2, 3] | 5-HIAA concentration in striatum (MV) [2, 3] | 5-HT concentration in striatum (MV) [2, 3] | Dopac concentration in striatum (MV) [2, 3] | Dopamine concentration in striatum (MV) [2, 3] | HVA concentration in striatum (MV) [2, 3] | 3-MT concentration in striatum (MV) [2, 4] | 5-HIAA concentration in striatum (MV) [2, 4] | 5-HT concentration in striatum (MV) [2, 4] | Dopac concentration in striatum (MV) [2, 4] | Dopamine concentration in striatum (MV) [2, 4] | HVA concentration in striatum (MV) [2, 4] | Effect on the metabolites DOPAC and HVA in striatum (in words) [2, 5] | Effect on the concentrations of dopamine in striatum (in words) [2, 6] | Effect on the metabolites DOPAC and HVA in striatum (in words) [2, 6] | also measured |
| --- | --- | --- | --- | --- | --- | --- | --- | --- | --- | --- | --- | --- | --- | --- | --- | --- | --- | --- | --- | --- | --- |
| NC(Cc1ccc(O)c(O)c1)C(=O)O [L-DOPA, 2-amino-3-(3,4-dihydroxyphenyl)-propionic acid, reference compound] | 11897 pg per ml plasma | 18687 pg per ml plasma | 3089 pg per ml plasma | 20833 pg per ml plasma | 20437 pg per ml plasma | 312 pg per mg striatum | 711 pg per mg striatum | 365 pg per mg striatum | 3017 pg per mg striatum | 10108 pg per mg striatum | 1752 pg per mg striatum | 259 pg per mg striatum | 593 pg per mg striatum | 366 pg per mg striatum | 9159 pg per mg striatum | 11844 pg per mg striatum | 4550 pg per mg striatum | increased | do not lead to an increase | increased | HVA concentration in blood plasma (MV) (blood plasma of rats; [3]): 9592 pg per ml plasma; 3-MT concentration in blood plasma (MV) (blood plasma of rats; [4]): 14711 pg per ml plasma; 5-HIAA concentration in blood plasma (MV) (blood plasma of rats; [4]): 11426 pg per ml plasma; 5-HT concentration in blood plasma (MV) (blood plasma of rats; [4]): 15108 pg per ml plasma; Dopac concentration in blood plasma (MV) (blood plasma of rats; [4]): 38697 pg per ml plasma; Dopamine concentration in blood plasma (MV) (blood plasma of rats; [4]): 31519 pg per ml plasma; HVA concentration in blood plasma (MV) (blood plasma of rats; [4]): 69329 pg per ml plasma; Formation of dopamine in the blood plasma (in words) (blood plasma of rats): dopamine is formed; Dose dependence of dopamine release in nucleus accumbens (in words) [1]: released in a dose-dependent manner; Time-course of dopamine concentration in nucleus accumbens microdialysate (in words) [1]: strongly increases; Effect on the concentrations of dopamine in striatum (in words) [2, 5]: led to an increase |
| O=C(CCCCC1CCSS1)NC(Cc1ccc(O)c(O)c1)C(=O)O [compound 3, L-DOPA-(D,L)-lipoic acid amide] |  |  |  |  |  | 292 pg per mg striatum | 620 pg per mg striatum | 340 pg per mg striatum | 1508 pg per mg striatum | 10539 pg per mg striatum | 1042 pg per mg striatum | 237 pg per mg striatum | 490 pg per mg striatum | 278 pg per mg striatum | 1788 pg per mg striatum | 11488 pg per mg striatum | 1244 pg per mg striatum | increased | do not lead to an increase | only HVA | Effect on the concentrations of dopamine in striatum (in words) [2, 5]: led to an increase |
| CC(=O)Oc1ccc(C[C@H](N)C(=O)OCCOC(=O)CCCCC2CCSS2)cc1OC(C)=O (stereo partly drawn) [compound 1, O,O′-diacetyl-L-DOPA-ethylene glycol lipoic acid ester] | 8563 pg per ml plasma | 13852 pg per ml plasma | 8894 pg per ml plasma | 57257 pg per ml plasma | 29782 pg per ml plasma | 308 pg per mg striatum | 706 pg per mg striatum | 355 pg per mg striatum | 4532 pg per mg striatum | 11244 pg per mg striatum | 2567 pg per mg striatum | 194 pg per mg striatum | 764 pg per mg striatum | 411 pg per mg striatum | 9549 pg per mg striatum | 11695 pg per mg striatum | 4314 pg per mg striatum | increased | do not lead to an increase | increased | HVA concentration in blood plasma (MV) (blood plasma of rats; [3]): 16836 pg per ml plasma; 3-MT concentration in blood plasma (MV) (blood plasma of rats; [4]): 6288 pg per ml plasma; 5-HIAA concentration in blood plasma (MV) (blood plasma of rats; [4]): 15367 pg per ml plasma; 5-HT concentration in blood plasma (MV) (blood plasma of rats; [4]): 12094 pg per ml plasma; Dopac concentration in blood plasma (MV) (blood plasma of rats; [4]): 58266 pg per ml plasma; Dopamine concentration in blood plasma (MV) (blood plasma of rats; [4]): 22129 pg per ml plasma; HVA concentration in blood plasma (MV) (blood plasma of rats; [4]): 71658 pg per ml plasma; Formation of dopamine in the blood plasma (in words) (blood plasma of rats): Dopamine is also formed; Dose dependence of dopamine release in nucleus accumbens (in words) [1]: released in a dose-dependent manner; Time-course of dopamine concentration in nucleus accumbens microdialysate (in words) [1]: two-peak-maximum and a less steep increase as well as a longer lasting effect |
| CC(=O)Oc1ccc(CC(NC(=O)CCCCC2CCSS2)C(=O)O)cc1OC(C)=O [compound 2, O,O′-diacetyl-L-DOPA-(R,S)-lipoic acid amide] | 11480 pg per ml plasma | 8374 pg per ml plasma | 7966 pg per ml plasma | 52963 pg per ml plasma | 23006 pg per ml plasma | 267 pg per mg striatum | 780 pg per mg striatum | 438 pg per mg striatum | 6127 pg per mg striatum | 10512 pg per mg striatum | 1577 pg per mg striatum | 176 pg per mg striatum | 782 pg per mg striatum | 448 pg per mg striatum | 5697 pg per mg striatum | 11485 pg per mg striatum | 1742 pg per mg striatum | increased | do not lead to an increase | increased | HVA concentration in blood plasma (MV) (blood plasma of rats; [3]): 44304 pg per ml plasma; 3-MT concentration in blood plasma (MV) (blood plasma of rats; [4]): 6121 pg per ml plasma; 5-HIAA concentration in blood plasma (MV) (blood plasma of rats; [4]): 12656 pg per ml plasma; 5-HT concentration in blood plasma (MV) (blood plasma of rats; [4]): 7494 pg per ml plasma; Dopac concentration in blood plasma (MV) (blood plasma of rats; [4]): 57729 pg per ml plasma; Dopamine concentration in blood plasma (MV) (blood plasma of rats; [4]): 21919 pg per ml plasma; HVA concentration in blood plasma (MV) (blood plasma of rats; [4]): 42184 pg per ml plasma; Formation of dopamine in the blood plasma (in words) (blood plasma of rats): Dopamine is also formed; Effect on the concentrations of dopamine in striatum (in words) [2, 5]: led to an increase; Effect on the concentration of 5-HT in striatum (in words) ([2]; rat, in vivo): increased the concentration of 5-HT |
